The subject of experiment [1] is patients with major depressive disorder. Description: Randomized, placebo controlled study of BTRX-246040 in patients with major depressive disorder. In kind it is in vivo, human. An excerpt: The disclosed systems and methods were used in a randomized, placebo controlled study to identify patients that would respond to BTRX-246040 (LY2940094)—a nociceptin receptor antagonist (“NOPA”). Details about the chemical structure and other properties, uses and indications for BTRX-246040 are disclosed in J M Witkin et al., “Therapeutic Approaches for NOP Receptor Antagonists in Neurobehavioral Disorders: Clinical Studies in Majority Depressive Disorder and Alcohol Use Disorder with BTRX-246040,” the content of which is incorporated herein by reference in its entirety. Additionally, BTRX-246040, it's uses, indications, treatments, and forms are disclosed in U.S. Pat. No. 8,232,289 filed Nov. 10, 2010, titled “Spiropiperidine Compounds as ORL-1 Receptor Antagonists” and U.S. Publication NO. 2012/0214784 filed Aug. 23, 2012 titled “Spiropiperidine Compounds as ORL-1 Receptor Antagonists,” both of which are incorporated by reference in their entirety herein.
During the study disclosed herein, BTRX-246040 was administered once daily in patients with major depressive disorder without anhedonia. The study included 73 patients with 38 randomized to BTRX-246040 and 35 randomized to the placebo. The BTRX group had 17 responders and the placebo had 15 responders. The study included the following methods: • 28 days screening period • Eight (8 (weeks of active treatment • Off-drug follow up after one to two weeks • 104 MDD patients randomized • 1:1 ratio stratified by SHAPS≤4 and SHAPS>4 • dosage: 40 mg first week, then 80 mg onwards when tolerated
The following are known clinical questionnaires that were utilized at the indicated time points above: • Montgomery-Asberg Depression Scale (MADRS) • Hamilton Anxiety Scale (HAMA) • Hospital Anxiety and Depression Scale (HADS-A/HADS-D) • Snaith-Hamilton Pleasure Scale (SHAPS) • Dimensional Anhedonia Rating Scale (DARS) Tasks
The primary outcome of the study utilized was the clinical scale MADRS total at week 8. […]

For experiment [2], the system named is patients with mood and anxiety spectrum disorders. The experiment in a line: FAST-MAS phase 2a study of CERC-501 in mood and anxiety spectrum disorders. In kind it is in vivo, human. The text has this:
In another example, during a phase 2a study known as FAST-MAS was run to evaluate the Kappa Opioid Receptor (“KOR”) as a target for the treatment of mood and anxiety spectrum disorders. Additionally, CERC-501, it's uses, indications, treatments, and forms are disclosed in PCT Publication No. WO2018170492, filed Mar. 16, 2018, titled “Kappa Opioid Receptor Antagonists and Products and Methods Related Thereto” which is incorporated by reference herin in its entirety. During the trial, CERC-501 was tested to see whether it engaged key neural circuitry related to the hedonic response.
The FAST-MAS trial included a 30-day screening period, followed by 8 weeks of active treatment, follow up 12 weeks of off-drug follow up after baseline. The study included […] (of 163 enrolled) to include 45 on CERC-501 and 44 to the Placebo. The patients received […] daily for the 8 weeks of active treatment.
Patients were eligible for enrollment if they met both: • (i) DSM-IV TR critiera for at least one of: • MDD • Bipolar I or II Depressed • GAD • Social Phobia • Panic Disorder • PTSD; and • (ii) SHAPS score of ≥20
Furthermore, the primary outcome measures were the following measures included in Table 7 below. These include the fMRI, the SHAPS scale, and the PRT task as disclosed herein

`Cc1nn(-c2ncccc2CO)cc1CN1CCC2(CC1)OCC(F)(F)c1cc(Cl)sc12` [BTRX-246040]: in experiment [1] (38 patients randomized to BTRX-246040, once daily, 40 mg first week then 80 mg, 8 weeks, high responder = MADRS decrease by 50% from baseline), the number of responders amounted to 17. Also, the “group level treatment effects versus placebo” value in experiment [1] (across all subjects, MADRS total at week 8, FIGS. 15A-15B) is given as “did as well as the placebo”. In addition, the “change on the MADRS scale in patients identified by the classifiers as higher responders” value in experiment [1] (after the 8-week study, subgroup chosen by classifiers from baseline data, FIGS. 16A-16B) is reported as “greater than 5 point”.
Take `Cc1cc(C)cc([C@@H]2CCCN2Cc2ccc(Oc3ccc(C(N)=O)cc3F)cc2)c1` [CERC-501]: the “impact on patients identified using the Bayesian Decision Lists versus patients generally that received active treatment” value in experiment [2] (subgroup identified by rule list, FIGS. 26A-26B) is recorded as “greater on the patients identified using the Bayesian Decision Lists than the impact generally on the patients that received the active treatment”. Moreover, the “outcome and treatment response” value in experiment [2] (whole patient cohort, 8 weeks of active treatment) is “illustrated a difference in the outcome and treatment response”.

(Values after patent publication US11857322B2, “Systems and methods for screening, diagnosing, and stratifying patients” (BlackThorn Therapeutics, Inc., priority 2018, dated 2024).)
